# Biological target: ROCK2 (Homo sapiens, UniProt O75116)
# Assay: ROCK2 kinase inhibition assay (Caliper LABCHIP, FITC peptide substrate)
# Type: biochemical
# Details: 5 μM ATP, 1.5 μM peptide substrate; value ranges
# Method in brief: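 Dose-response curves gave IC50 from inhibition of peptide phosphorylation, measured by LabChip separation after EDTA stop. Reactions used 1.5 μM FITC-labelled peptide, 5 μM ATP, 20 mM HEPES pH 7.5 with MgCl2, Brij-35, DTT, and under 2% DMSO.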
# Chain of ROCK2 (O75116 whole entry, species assumed): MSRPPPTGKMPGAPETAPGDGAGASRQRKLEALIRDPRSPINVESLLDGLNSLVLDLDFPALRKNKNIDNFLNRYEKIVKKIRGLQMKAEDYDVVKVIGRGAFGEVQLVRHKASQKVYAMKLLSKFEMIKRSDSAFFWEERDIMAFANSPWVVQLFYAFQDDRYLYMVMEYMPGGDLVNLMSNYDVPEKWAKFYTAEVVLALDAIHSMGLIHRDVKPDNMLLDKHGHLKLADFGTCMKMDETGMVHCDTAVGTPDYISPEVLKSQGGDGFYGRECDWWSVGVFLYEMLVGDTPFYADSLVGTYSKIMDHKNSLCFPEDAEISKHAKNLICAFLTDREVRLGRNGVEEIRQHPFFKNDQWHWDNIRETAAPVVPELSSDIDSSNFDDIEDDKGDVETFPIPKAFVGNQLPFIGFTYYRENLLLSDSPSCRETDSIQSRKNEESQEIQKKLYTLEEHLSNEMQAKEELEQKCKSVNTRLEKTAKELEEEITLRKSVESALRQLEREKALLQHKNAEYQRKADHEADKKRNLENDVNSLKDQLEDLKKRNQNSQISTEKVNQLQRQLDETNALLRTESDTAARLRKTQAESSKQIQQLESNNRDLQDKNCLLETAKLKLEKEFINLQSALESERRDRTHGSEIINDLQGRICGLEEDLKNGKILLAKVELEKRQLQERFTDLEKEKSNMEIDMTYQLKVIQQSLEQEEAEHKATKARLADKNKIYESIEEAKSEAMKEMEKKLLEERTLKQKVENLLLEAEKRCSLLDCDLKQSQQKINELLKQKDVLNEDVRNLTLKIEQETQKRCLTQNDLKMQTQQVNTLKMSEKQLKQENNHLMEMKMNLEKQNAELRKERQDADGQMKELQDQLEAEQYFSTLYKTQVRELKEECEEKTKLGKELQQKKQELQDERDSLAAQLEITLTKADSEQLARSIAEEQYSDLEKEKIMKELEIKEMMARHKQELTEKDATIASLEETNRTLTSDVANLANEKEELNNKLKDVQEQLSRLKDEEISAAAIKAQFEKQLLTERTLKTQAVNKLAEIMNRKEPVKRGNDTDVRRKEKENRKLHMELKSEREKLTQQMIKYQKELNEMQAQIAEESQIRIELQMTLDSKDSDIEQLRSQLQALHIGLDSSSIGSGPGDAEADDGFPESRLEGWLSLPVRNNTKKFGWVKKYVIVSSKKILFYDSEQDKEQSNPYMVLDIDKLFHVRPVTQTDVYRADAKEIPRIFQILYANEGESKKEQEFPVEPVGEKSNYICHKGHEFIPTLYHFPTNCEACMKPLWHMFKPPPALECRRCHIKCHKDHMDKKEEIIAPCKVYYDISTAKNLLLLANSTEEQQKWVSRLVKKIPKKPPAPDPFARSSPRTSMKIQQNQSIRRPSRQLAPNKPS
row,SMILES,IC50 [µM]
1,"COc1nc(N2CCN(Cc3cccc(C)c3)C2=O)ccc1-c1cn[nH]c1 [Example 257, 1-(6-methoxy-5-(1H-pyrazol-4-yl)pyridin-2-yl)-3-(3-methylbenzyl)imidazolidin-2-one]",0.0021 to 0.02
2,"COc1cc(CN2CCN(c3ccc(-c4cn[nH]c4)cc3)C2=O)ccc1F [Example 263, 1-(4-(1H-pyrazol-4-yl)phenyl)-3-(4-fluoro-3-methoxybenzyl)imidazolidin-2-one]",0.0021 to 0.02
3,"COc1c(F)cccc1CN1CCN(c2ccc(-c3cn[nH]c3)cc2)C1=O [Example 264, 1-(4-(1H-pyrazol-4-yl)phenyl)-3-(3-fluoro-2-methoxybenzyl)imidazolidin-2-one]",0.0201 to 0.2
4,"CCc1cc(N2CCN([C@H](C)c3cccc(OC)c3)C2=O)ccc1-c1cn[nH]c1 [Example 272, (R)-1-(3-ethyl-4-(1H-pyrazol-4-yl)phenyl)-3-(1-(3-methoxyphenyl)ethyl)imidazolidin-2-one]",0.0021 to 0.02
5,"COc1cccc(CN2CCN(c3ccc(-c4cn[nH]c4)c(C)c3)C2=O)c1 [Example 273, 1-(3-methoxybenzyl)-3-(3-methyl-4-(1H-pyrazol-4-yl)phenyl)imidazolidin-2-one]",0.0021 to 0.02
6,"COc1cc(F)cc(CN2CCN(c3ccc(-c4cn[nH]c4)c(C)c3)C2=O)c1 [Example 274, 1-(3-fluoro-5-methoxybenzyl)-3-(3-methyl-4-(1H-pyrazol-4-yl)phenyl)imidazolidin-2-one]",< 0.002
7,"COc1cccc(CN2CCN(c3ccc(-c4cn[nH]c4)c(C(F)(F)F)c3)C2=O)c1 [Example 275, 1-(4-(1H-pyrazol-4-yl)-3-(trifluoromethyl)phenyl)-3-(3-methoxybenzyl)imidazolidin-2-one]",0.0201 to 0.2
8,"COc1cc(F)cc(CN2CCN(c3ccc(-c4cn[nH]c4)c(C(F)(F)F)c3)C2=O)c1 [Example 276, 1-(4-(1H-pyrazol-4-yl)-3-(trifluoromethyl)phenyl)-3-(3-fluoro-5-methoxybenzyl)imidazolidin-2-one]",0.0201 to 0.2
9,"COc1cccc(CN2CCN(c3ccc(-c4cn[nH]c4)c(C#N)c3)C2=O)c1 [Example 277, 5-(3-(3-methoxybenzyl)-2-oxoimidazolidin-1-yl)-2-(1H-pyrazol-4-yl)benzonitrile]",0.2 to 2
10,"COc1cc(F)cc(CN2CCN(c3ccc(-c4cn[nH]c4)c(C#N)c3)C2=O)c1 [Example 278, 5-(3-(3-fluoro-5-methoxybenzyl)-2-oxoimidazolidin-1-yl)-2-(1H-pyrazol-4-yl)benzonitrile]",0.0201 to 0.2
11,"COc1cc(CN2CCN(c3ccc(-c4cn[nH]c4)c(C#N)c3)C2=O)ccc1F [Example 279, 5-(3-(4-fluoro-3-methoxybenzyl)-2-oxoimidazolidin-1-yl)-2-(1H-pyrazol-4-yl)benzonitrile]",0.2 to 2
12,"CCc1cc(N2CCN(Cc3cc(F)cc(OC)c3)C2=O)ccc1-c1cn[nH]c1 [Example 280, 1-(3-ethyl-4-(1H-pyrazol-4-yl)phenyl)-3-(3-fluoro-5-methoxybenzyl)imidazolidin-2-one]",0.0021 to 0.02
13,"CCc1cc(N2CCN(Cc3ccc(F)c(OC)c3)C2=O)ccc1-c1cn[nH]c1 [Example 281, 1-(3-ethyl-4-(1H-pyrazol-4-yl)phenyl)-3-(4-fluoro-3-methoxybenzyl)imidazolidin-2-one]",0.0021 to 0.02
14,"COc1cc(CN2CCN(c3ccc(-c4cn[nH]c4)c(C)c3)C2=O)ccc1F [Example 282, 1-(4-fluoro-3-methoxybenzyl)-3-(3-methyl-4-(1H-pyrazol-4-yl)-phenyl)imidazolidin-2-one]",0.0021 to 0.02
15,"COc1cc(CN2CCN(c3ccc(-c4cn[nH]c4)c(C(F)(F)F)c3)C2=O)ccc1F [Example 283, 1-(4-(1H-pyrazol-4-yl)-3-(trifluoromethyl)phenyl)-3-(4-fluoro-3-methoxybenzyl)imidazolidin-2-one]",0.2 to 2
16,"Cc1cc(N2CCN(Cc3cccc(OCC4CC4)c3)C2=O)ccc1-c1cn[nH]c1 [Example 284, 1-(3-(cyclopropylmethoxy)benzyl)-3-(3-methyl-4-(1H-pyrazol-4-yl)phenyl)imidazolidin-2-one]",0.0201 to 0.2
17,"CCc1cc(N2CCN(Cc3cccc(OCC4CC4)c3)C2=O)ccc1-c1cn[nH]c1 [Example 285, 1-(3-(cyclopropylmethoxy)benzyl)-3-(3-ethyl-4-(1H-pyrazol-4-yl)phenyl)imidazolidin-2-one]",0.2 to 2
18,"COc1cc(CN2C(=O)N(c3ccc(-c4cn[nH]c4)cn3)C[C@H]2CO)ccc1F [Example 311, (S)-1-(5-(1H-Pyrazol-4-yl)pyridin-2-yl)-3-(4-fluoro-3-methoxybenzyl)-4-(hydroxymethyl)imidazolidin-2-one]",0.0201 to 0.2
19,"COc1cc(F)cc(CN2C(=O)N(c3ccc(-c4cn[nH]c4)cn3)C[C@H]2CO)c1 [Example 312, (S)-1-(5-(1H-pyrazol-4-yl)pyridin-2-yl)-3-(3-fluoro-5-methoxybenzyl)-4-(hydroxymethyl)imidazolidin-2-one]",0.0021 to 0.02
20,"COc1cc(F)cc(CN2C(=O)N(c3ccc(-c4cn[nH]c4)cn3)C[C@@H]2CO)c1 [Example 313, (R)-1-(5-(1H-pyrazol-4-yl)pyridin-2-yl)-3-(3-fluoro-5-methoxybenzyl)-4-(hydroxymethyl)imidazolidin-2-one]",0.0201 to 0.2

row,SMILES,IC50 [µM]
1,"COc1cccc(CN2C(=O)N(c3ccc(-c4cn[nH]c4)cn3)C[C@H]2CO)c1 [Example 314, (S)-1-(5-(1H-pyrazol-4-yl)pyridin-2-yl)-4-(hydroxymethyl)-3-(3-methoxybenzyl)imidazolidin-2-one]",0.0021 to 0.02
2,"COc1cccc(CN2CCN(c3ccc(-c4ccncc4F)c(OC)n3)C2=O)c1 [Example 316, 1-(3′-Fluoro-2-methoxy-[3,4′-bipyridin]-6-yl)-3-(3-methoxybenzyl)imidazolidin-2-one]",0.0021 to 0.02
3,"COc1cccc(CN2CCN(c3ccc(-c4ccnc(F)c4)c(OC)n3)C2=O)c1 [Example 319, 1-(2′-fluoro-2-methoxy-[3,4′-bipyridin]-6-yl)-3-(3-methoxybenzyl)imidazolidin-2-one]",0.0021 to 0.02
4,"COc1cccc(CN2CCN(c3ccc(-c4c[nH]nc4C)c(OC)n3)C2=O)c1 [Example 320, 1-(6-methoxy-5-(5-methyl-1H-pyrazol-4-yl)pyridin-2-yl)-3-(3-methoxybenzyl)imidazolidin-2-one]",0.0021 to 0.02
5,O=c1n(Cc2cccc(F)c2)ccn1-c1ccc(-c2cn[nH]c2)cc1 [Example 321],0.0021 to 0.02
6,"COc1cccc(Cn2ccn(-c3ccc(-c4ccnc5[nH]ccc45)cc3)c2=O)c1 [Example 322, 1-(4-(1H-pyrrolo[2,3-b]pyridin-4-yl)phenyl)-3-(3-methoxybenzyl)-1H-imidazol-2(3H)-one]",0.0021 to 0.02
7,"O=c1n(CCc2ccccc2F)ccn1-c1ccc(-c2cn[nH]c2)cc1 [Example 330, 1-(4-(1H-pyrazol-4-yl)phenyl)-3-(2-fluorophenethyl)-1H-imidazol-2(3H)-one]",0.0201 to 0.2
8,"CC(c1ccccc1)n1ccn(-c2ccc(-c3cn[nH]c3)cc2)c1=O (stereo not shown) [Example 331, 1-(4-(1H-pyrazol-4-yl)phenyl)-3-(1-phenylethyl)-1H-imidazol-2(3H)-one]",0.0021 to 0.02
9,"CC(c1ccccc1)n1ccn(-c2ccc(-c3cn[nH]c3)cc2)c1=O (stereo not shown) [Example 332, 1-(4-(1H-pyrazol-4-yl)phenyl)-3-(1-phenylethyl)-1H-imidazol-2(3H)-one]",0.0201 to 0.2
10,"O=c1n(Cc2cccc(OC(F)F)c2)ccn1-c1ccc(-c2cn[nH]c2)cc1 [Example 333, 1-(4-(1H-pyrazol-4-yl)phenyl)-3-(3-(difluoromethoxy)benzyl)-1H-imidazol-2(3H)-one]",0.0021 to 0.02
11,"COc1cccc(Cn2ccn(-c3ccc(-c4cn[nH]c4)cc3)c2=O)c1 [Example 334, l-(4-(1H-pyrazol-4-yl)phenyl)-3-(3-methoxybenzyl)-1H-imidazol-2(3H)-one]",< 0.002
12,"O=c1n(CCc2ccccc2)ccn1-c1ccc(-c2cn[nH]c2)cc1 [Example 335, 1-(4-(1H-pyrazol-4-yl)phenyl)-3-phenethyl-1H-imidazol-2(3H)-one]",0.0201 to 0.2
13,"COc1cc(F)cc(Cn2ccn(-c3ccc(-c4cn[nH]c4)cc3)c2=O)c1 [Example 336, 1-(4-(1H-pyrazol-4-yl)phenyl)-3-(3-fluoro-5-methoxybenzyl)-1H-imidazol-2(3H)-one]",0.0021 to 0.02
14,"COc1cccc(Cn2ccn(-c3ccc(-c4cn[nH]c4)cc3)c2=O)c1F [Example 337, 1-(4-(1H-pyrazol-4-yl)phenyl)-3-(2-fluoro-3-methoxybenzyl)-1H-imidazol-2(3H)-one]",0.0201 to 0.2
15,"COc1ccc(F)c(Cn2ccn(-c3ccc(-c4cn[nH]c4)cc3)c2=O)c1 [Example 338, 1-(4-(1H-pyrazol-4-yl)phenyl)-3-(2-fluoro-5-methoxybenzyl)-1H-imidazol-2(3H)-one]",0.0201 to 0.2
16,"COc1cccc(Cn2ccn(-c3ccc(-c4cn[nH]c4)c(OC)c3)c2=O)c1 [Example 342, 1-(3-methoxy-4-(1H-pyrazol-4-yl)phenyl)-3-(3-methoxybenzyl)-1H-imidazol-2(3H)-one]",< 0.002
17,"COc1cc(F)cc(Cn2ccn(-c3ccc(-c4cn[nH]c4)c(OC)c3)c2=O)c1 [Example 343, 1-(3-fluoro-5-methoxybenzyl)-3-(3-methoxy-4-(1H-pyrazol-4-yl)phenyl)-1H-imidazol-2(3H)-one]",0.0021 to 0.02
18,"COc1cccc(Cn2ccn(-c3ccc(-c4cn[nH]c4)cn3)c2=O)c1 [Example 344, 1-(5-(1H-pyrazol-4-yl)pyridin-2-yl)-3-(3-methoxybenzyl)-1H-imidazol-2(3H)-one]",0.0021 to 0.02
19,"COc1cc(F)cc(Cn2ccn(-c3ccc(-c4cn[nH]c4)cn3)c2=O)c1 [Example 345, 1-(5-(1H-pyrazol-4-yl)pyridin-2-yl)-3-(3-fluoro-5-methoxybenzyl)-1H-imidazol-2(3H)-one]",0.0021 to 0.02
20,"COc1cc(Cn2ccn(-c3ccc(-c4cn[nH]c4)cn3)c2=O)ccc1F [Example 346, 1-(5-(1H-pyrazol-4-yl)pyridin-2-yl)-3-(4-fluoro-3-methoxybenzyl)-1H-imidazol-2(3H)-one]",0.0201 to 0.2

# Reference: US10123993B2, “Cyclic ureas as inhibitors of rock” (BRISTOL-MYERS SQUIBB COMPANY, priority 2015, dated 2018)
